# Source: patent publication US12729377B2, “RNAi agents and compositions for inhibiting expression of angiopoietin-like 3 (ANGPTL3), and methods of use” (Arrowhead Pharmaceuticals, Inc., priority 2017, dated 2026)
# In the oligonucleotide strings, read from the 5' end, every base follows the letter of its sugar. An asterisk marks phosphorothioate; unmarked linkages are phosphodiester. Other units and linkages are bracketed, terminal groups are in braces. A string of capitals states the bases alone. {NAG37} = tridentate N-acetyl-galactosamine targeting ligand, structure (NAG37)s; [invAb] = inverted abasic unit; m = 2'-O-methyl; f = 2'-fluoro
# Key:
# [1] = tested on: ANGPTL3 gene; assay: Example 4: serum total cholesterol in mice; format: in vivo, C57bl/6 mice
# Description: (§1) To assess the in vivo activity of ANGPTL3 RNAi agents that are designed to target additional positions on the ANGPTL3 gene, six- to eight-week-old female C57bl/6 mice were used. Pre-dose serum samples were taken at day −1 after a four hour fast. At day 1, each mouse was given a single subcutaneous administration of 200 μl containing either 1 mg/kg (mpk) or 0.5 mg/kg (mpk) of an ANGPTL3 RNAi agent in D5W (dextrose in 5% water), or control (D5W) with no RNAi agent, according to the dosing groups recited in Table 17.
# (§2) Each of the RNAi agents included a modified sequence and an N-acetyl-galactosamine-containing targeting ligand conjugated to the 5′ terminal end of the sense strand. (See Tables 3, 4, and 5 for modified sequences and targeting ligand structures). The injections were performed between the skin and muscle (i.e. subcutaneous injections) into the loose skin over the neck and shoulder area. Three (3) mice in each group were tested (n=3). Serum was collected on days 8, 15, 22, 29, and day 43 (Groups 1-3, 9, and 11-13 only). Mice were fasted for four hours prior to each collection. ANGPTL3 protein levels in serum were measured by ELISA assay (R&D Systems), according to the manufacturer's recommendations. Triglycerides, high-density lipoprotein (HDL), and total cholesterol in serum were measured on a Cobas® Integra 400 (Roche Diagnostics), according to the manufacturer's recommendations.
# (§3) The ANGPTL3 protein levels, triglyceride levels, HDL levels, and total cholesterol levels for each animal were normalized. For normalization, the level of ANGPTL3 protein, triglyceride, HDL, and total cholesterol, respectively, for each animal at a time point, was divided by the pre-treatment level of expression in that animal (in this case at day −1) to determine the ratio of expression “normalized to pre-treatment.” Expression at a specific time point was then normalized to the D5W control group by dividing the “normalized to pre-treatment” ratio for an individual animal by the mean “normalized to pretreatment” ratio of all mice in the D5W control group.
# [2] = tested on: ANGPTL3 protein; assay: Example 4: serum ANGPTL3 protein by ELISA in mice; format: in vivo, C57bl/6 mice; conditions: serum, female C57bl/6 mice
# Description: as §1, §2, §3
# [3] = tested on: ANGPTL3 gene; assay: Example 3: serum triglycerides in mice; format: in vivo
# Description: as §1, with “target” for “target additional”, “positions 921 and 922” for “positions”, “(mpk)” for “(mpk) or 0.5 mg/kg (mpk)”, “12.” for “17.”
# as §2, with “Serum was collected on days 8, 15, 22, 29, and day 43 (Groups 1-3, 9, and 11-13 only).” left out
# as §3
# [4] = tested on: ANGPTL3 gene; assay: Example 7: serum LDL in mice; format: in vivo; parameters: key: ratio: (level/pre-treatment day -1 level) ÷ mean of D5W control group; conditions: 0.5 mg/kg single SC injection day 1, female C57bl/6 mice, n=3, ratio to D5W control
# Summary of the method: (§4)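 Female C57bl/6 mice (6–8 weeks, n=3) received a single subcutaneous dose of 0.5 mg/kg GalNAc-conjugated RNAi agent or D5W vehicle. Serum was taken after a 4 h fast at day −1 and days 8, 15, 22 and 29. ANGPTL3 was measured by ELISA and lipids by clinical analyzer, each normalised to the animal's pre-dose level and then to the D5W group mean.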
# [5] = tested on: ANGPTL3 protein; assay: Example 7: serum ANGPTL3 protein by ELISA in mice; format: in vivo, C57bl/6 mice; parameters: key: ratio: (level/pre-treatment day -1 level) ÷ mean of D5W control group
# Summary of the method: as §4
# [6] = Day 8, 0.5 mg/kg single SC injection on day 1, n=3
# [7] = Day 15, 0.5 mg/kg single SC injection on day 1, n=3
# [8] = Day 22, 0.5 mg/kg single SC injection on day 1, n=3
# [9] = Day 29, 0.5 mg/kg single SC injection on day 1, n=3
substance,measurement,setting,value
"AD05308: RNAi agent duplex: antisense AM07003-AS, sense AM07002-SS (chain 1 mU*fG*mU*fUmGfAmAfUmUfAmAfUmGfUmCfCmAfUmGfG*mA; chain 2 {NAG37}*[invAb]*mUmCmCmAmUmGmGmAfCfAfUmUmAmAmUmUmCmAmAmCmA*[invAb])","Avg Total Chol, normalized to pre-treatment and control",[1]; [6],0.992
same,"Avg Total Chol, normalized to pre-treatment and control","[1]; Day 8, 1.0 mg/kg single SC injection on day 1, n=3",0.868
same,"Avg Total Chol, normalized to pre-treatment and control",[1]; [7],0.838
same,"Avg Total Chol, normalized to pre-treatment and control","[1]; Day 15, 1.0 mg/kg single SC injection on day 1, n=3",0.793
same,"Avg Total Chol, normalized to pre-treatment and control",[1]; [8],1.000
same,"Avg Total Chol, normalized to pre-treatment and control","[1]; Day 22, 1.0 mg/kg single SC injection on day 1, n=3",0.770
same,"Avg Total Chol, normalized to pre-treatment and control",[1]; [9],0.958
same,"Avg Total Chol, normalized to pre-treatment and control","[1]; Day 29, 1.0 mg/kg single SC injection on day 1, n=3",0.819
same,"Avg Total Chol, normalized to pre-treatment and control","[1]; Day 43, 0.5 mg/kg single SC injection on day 1, n=3",1.157
same,"Avg Total Chol, normalized to pre-treatment and control","[1]; Day 43, 1.0 mg/kg single SC injection on day 1, n=3",1.073
same,Avg ANGPTL3 (Average ANGPTL3 Protein Normalized to Pre-Treatment and Control),"[2]; Day 8, 0.5 mg/kg single subcutaneous dose on day 1",0.340
same,Avg ANGPTL3 (Average ANGPTL3 Protein Normalized to Pre-Treatment and Control),"[2]; Day 8, 1.0 mg/kg single subcutaneous dose on day 1",0.299
same,Avg ANGPTL3 (Average ANGPTL3 Protein Normalized to Pre-Treatment and Control),"[2]; Day 15, 0.5 mg/kg single subcutaneous dose on day 1",0.310
same,Avg ANGPTL3 (Average ANGPTL3 Protein Normalized to Pre-Treatment and Control),"[2]; Day 15, 1.0 mg/kg single subcutaneous dose on day 1",0.298
same,Avg ANGPTL3 (Average ANGPTL3 Protein Normalized to Pre-Treatment and Control),"[2]; Day 22, 0.5 mg/kg single subcutaneous dose on day 1",0.319
same,Avg ANGPTL3 (Average ANGPTL3 Protein Normalized to Pre-Treatment and Control),"[2]; Day 22, 1.0 mg/kg single subcutaneous dose on day 1",0.252
same,Avg ANGPTL3 (Average ANGPTL3 Protein Normalized to Pre-Treatment and Control),"[2]; Day 29, 0.5 mg/kg single subcutaneous dose on day 1",0.345
same,Avg ANGPTL3 (Average ANGPTL3 Protein Normalized to Pre-Treatment and Control),"[2]; Day 29, 1.0 mg/kg single subcutaneous dose on day 1",0.322
same,Avg ANGPTL3 (Average ANGPTL3 Protein Normalized to Pre-Treatment and Control),"[2]; Day 43, 0.5 mg/kg single subcutaneous dose on day 1",0.582
same,Avg ANGPTL3 (Average ANGPTL3 Protein Normalized to Pre-Treatment and Control),"[2]; Day 43, 1.0 mg/kg single subcutaneous dose on day 1",0.643
same,Avg TG (Average Triglycerides Normalized to Pre-Treatment and Control),"[3]; Day 8, 1.0 mg/kg single subcutaneous dose on day 1, female C57bl/6 mice",0.952
same,Avg TG (Average Triglycerides Normalized to Pre-Treatment and Control),"[3]; Day 15, 1.0 mg/kg single subcutaneous dose on day 1, female C57bl/6 mice",0.749
same,Avg TG (Average Triglycerides Normalized to Pre-Treatment and Control),"[3]; Day 22, 1.0 mg/kg single subcutaneous dose on day 1, female C57bl/6 mice",0.854
same,Avg TG (Average Triglycerides Normalized to Pre-Treatment and Control),"[3]; Day 29, 1.0 mg/kg single subcutaneous dose on day 1, female C57bl/6 mice",1.009
same,"Avg LDL, normalized to pre-treatment and control",[4]; Day 8,0.710
same,"Avg LDL, normalized to pre-treatment and control",[4]; Day 15,0.801
same,"Avg LDL, normalized to pre-treatment and control",[4]; Day 22,0.933
same,"Avg LDL, normalized to pre-treatment and control",[4]; Day 29,1.047
same,"Avg ANGPTL3, normalized to pre-treatment and control",[5]; [6],0.447
same,"Avg ANGPTL3, normalized to pre-treatment and control",[5]; [7],0.388
same,"Avg ANGPTL3, normalized to pre-treatment and control",[5]; [8],0.440
same,"Avg ANGPTL3, normalized to pre-treatment and control",[5]; [9],0.523
